The values below come from patent US12275737B2, “Polymorphs of a kinase inhibitor, pharmaceutical compositions containing such a compound, preparation methods, and applications” (Meryx, Inc., priority 2019, dated 2025).

Data set [1] can be described thus: Determination of crystal form stability. The class given is physicochemical.
The nature of data set [2]: Pharmacokinetics after oral capsule in male beagle dogs. Particulars: for absorption in the body compared with the free alkali of the compound of Formula I: conclusion from Table 6. It is filed as in vivo. The protocol: Nine male beagle dogs are divided into three groups, three in each group. They are each respectively administrated a 5 mg/kg oral capsule (PO) of Crystal Form 1, Crystal Form 2 and free base of the compound of Formula I (the dose is calculated according to the dose of the free base). Blood is collected from the jugular vein before administration and after administration for 15 minutes, 30 minutes, 1 hour, 2 hours, 4 hours, 6 hours, 8 hours, 10 hours, and 24 hours, and the plasma is separated and stored in a refrigerator at −80° C. LC-MS is subsequently used for analysis.

Data set [3] is described as follows: Determination of saturated solubility. The class given is physicochemical. Particulars: shaken 4 hours; for saturated solubility: 37° C. The protocol:
An appropriate amount of a sample of the compound is supersaturated in water at a pH of 1-8 and shaken at 37° C. for 4 hours with a shaker. The compound is sampled, centrifuged, then the supernatant is diluted and tested by HPLC. Calculations are compared to an external standard.
The saturated solubility of the compound of Crystal Form 1 and Crystal Form 2 of the compound of Formula I and MRX-2843 free base at 37° C. in different pH values are shown in Table 3.

Setting [4] is: stored at 40° C./75% RH for 1, 3 and 6 months, trihydrochloride.
Where [5] appears, read: 5 mg/kg (as free base), plasma, trihydrochloride.
Where [6] appears, read: male, beagle, dog, plasma, po, 5 mg/kg, 5 mg/kg (as free base).
[7] abbreviates: pH 2.0, water, trihydrochloride.
Setting [8] is: pH 3.0, water, trihydrochloride.
Setting [9] is: pH 4.5, water, trihydrochloride.
Setting [10] is: pH 6.0, water, trihydrochloride.
Setting [11] is: pH 6.8, water, trihydrochloride.
Where [12] appears, read: pH 7.4, water, trihydrochloride.
Where [13] appears, read: pH 8.0, water, trihydrochloride.
[14] abbreviates: 5 mg/kg (as free base), plasma, listed as Free base of the compound of Formula I.

Broadly, the Cmax is the maximum level reached in the sampled fluid or tissue. For orientation: AUC(0-inf) means the area under the concentration-time curve extrapolated to infinity. The low end stands for low exposure, the high end for high exposure. What is called AUC(0-t) is exposure summed from dosing to a finite time, without extrapolation to infinity. One may read the Tmax as the time at which the peak concentration occurs. In general, solubility refers to how much of the substance goes into solution per volume. Read a high solubility as a readily soluble substance.

Where a name gives a salt, the structure may show the parent alone. Read-outs that look alike come from different tables or passages of the source.

For the compound `CN1CCN(Cc2ccc(-c3cn([C@H]4CC[C@H](O)CC4)c4nc(NCCC5CC5)ncc34)cc2)CC1` [Crystal Form 1, trihydrochloride], the “crystal form after storage” value is reported as “remains unchanged” in data set [1] (stored at 25° C./60% RH for 1, 3 and 6 months); “remains unchanged” in data set [1] (setting [4]). Also, in data set [2] (setting [5]), the Cmax was 133 ng/mL. For the same compound, the “absorption in the body compared with the free alkali of the compound of Formula I” value in data set [2] (5 mg/kg) is on record as “better absorbed”. In data set [2] (setting [6]), this compound returned a total exposure AUC(0-inf) of 1620 ng·h/mL. In addition, the AUC(0-t) in data set [2] (setting [6]) came out at 1400 ng·h/mL. In data set [2] (male, beagle, dog, plasma, po, 5 mg/kg, 5 mg/kg (as free base), plasma, read-out: Tmax), the Tmax was determined as 2.67 h. Moreover, the saturated solubility in data set [3] (setting [7]) worked out at 489.60 mg/mL; in data set [3] (setting [8]), 522.25 mg/mL; in data set [3] (setting [9]) it was 513.40 mg/mL; in data set [3] (setting [10]) it was 460.64 mg/mL; in data set [3] (setting [11]), 554.17 mg/mL; in data set [3] (setting [12]), 494.83 mg/mL. This compound gave a saturated solubility in data set [3] (setting [13]) of 562.59 mg/mL. Moreover, the solubility at 4 h in data set [3] (water, 37 °C, pH 1, simulated gastric fluid, thermodynamic from solid, pH 1.0, water) is 587 mg/mL.

Turning to `CN1CCN(Cc2ccc(-c3cn([C@H]4CC[C@H](O)CC4)c4nc(NCCC5CC5)ncc34)cc2)CC1` [Crystal Form 2, trihydrochloride], the “crystal form after storage” value was “remains unchanged” in data set [1] (stored at 5° C. for 18 and 24 months); “remained unchanged” in data set [1] (stored at 25° C./60% RH for 1, 3, 6, 9, 12, 18 and 24 months); “unchanged” in data set [1] (setting [4]). The AUCInf in data set [2] (setting [5]) was 1,530 h * ng/mL. In data set [2] (setting [5]), the AUClast is given as 1,323 h * ng/mL. The compound also yielded a Cmax in data set [2] (setting [5]) of 125 ng/mL. In data set [2] (setting [5]), the Tmax came to 2.00 h. For the same compound, the “absorption in the body compared with the free alkali of the compound of Formula I” value in data set [2] (5 mg/kg) was “better absorbed”. Besides, the saturated solubility in data set [3] (pH 1.0, water, trihydrochloride) was found to be 535.05 mg/mL; in data set [3] (setting [7]), 531.72 mg/mL; in data set [3] (setting [8]), 512.80 mg/mL; in data set [3] (setting [9]), 527.84 mg/mL; in data set [3] (setting [10]) it was 546.95 mg/mL; in data set [3] (setting [11]) it was 557.34 mg/mL. For the same compound, the saturated solubility in data set [3] (setting [12]) was 516.01 mg/mL; in data set [3] (setting [13]), 479.26 mg/mL.

`CN1CCN(Cc2ccc(-c3cn([C@H]4CC[C@H](O)CC4)c4nc(NCCC5CC5)ncc34)cc2)CC1` [MRX-2843 free base, reference compound]: the AUCInf in data set [2] (setting [14]) is 1,318 h * ng/mL. Moreover, the AUClast in data set [2] (setting [14]) is 1,169 h * ng/mL. For the same compound, the Cmax in data set [2] (setting [14]) worked out at 285 ng/mL. The Tmax in data set [2] (setting [14]) turned out to be 3.33 h. The saturated solubility in data set [3] (pH 1.0, water) came out at 301.086 mg/mL; in data set [3] (pH 2.0, water) it was 3.110 mg/mL; in data set [3] (pH 3.0, water) it was 1.516 mg/mL; in data set [3] (pH 4.5, water) it was 2.034 mg/mL; in data set [3] (pH 6.0, water), 0.018 mg/mL; in data set [3] (pH 6.8, water), 0.008 mg/mL. In addition, the saturated solubility in data set [3] (pH 7.4, water) is recorded as 0.007 mg/mL; in data set [3] (pH 8.0, water) it was 0.008 mg/mL.
